Reference: the NIST ThermoML archive (doi:10.1016/j.jct.2006.01.008)

Test: mn = molality of the nth substance listed, in mol/kg
Conditions: Liquid

O=[N+]([O-])[O-].[Li+] [lithium nitrate] + CO
Conditions	mass density [kg/m3]
348.25 K, 312 kPa, m1 = 3.614	887.13
348.25 K, 318 kPa, m1 = 1.803	819.91
348.25 K, 325 kPa, m1 = 0.5393	764.85
348.25 K, 4991 kPa, m1 = 0.5393	770.52
348.25 K, 5006 kPa, m1 = 3.614	891.37
348.25 K, 5009 kPa, m1 = 1.803	824.85
348.25 K, 9982 kPa, m1 = 3.614	895.64
348.25 K, 10005 kPa, m1 = 1.803	829.8
348.25 K, 10014 kPa, m1 = 0.5393	776.21
348.25 K, 14983 kPa, m1 = 1.803	834.47
348.25 K, 14987 kPa, m1 = 0.5393	781.48
348.25 K, 15007 kPa, m1 = 3.614	899.77
348.25 K, 19991 kPa, m1 = 1.803	838.93
348.25 K, 19995 kPa, m1 = 3.614	903.68
348.25 K, 20004 kPa, m1 = 0.5393	786.51
348.25 K, 24984 kPa, m1 = 1.803	843.17
348.25 K, 24990 kPa, m1 = 3.614	907.45
348.25 K, 25002 kPa, m1 = 0.5393	791.23
348.25 K, 29989 kPa, m1 = 0.5393	795.72
348.25 K, 29996 kPa, m1 = 3.614	911.08
348.25 K, 30007 kPa, m1 = 1.803	847.26
348.25 K, 34987 kPa, m1 = 0.5393	800.01
348.25 K, 34994 kPa, m1 = 3.614	914.59
348.25 K, 34996 kPa, m1 = 1.803	851.13
348.25 K, 39988 kPa, m1 = 0.5393	804.12
348.25 K, 39995 kPa, m1 = 1.803	854.88
348.25 K, 40008 kPa, m1 = 3.614	917.97
373.15 K, 572 kPa, m1 = 0.1551	719.83
373.15 K, 578 kPa, m1 = 0.8904	757.09
373.15 K, 627 kPa, m1 = 0.2943	727.47
373.15 K, 4896 kPa, m1 = 0.1551	726.23
373.15 K, 4896 kPa, m1 = 0.8904	762.68
373.15 K, 5038 kPa, m1 = 0.2943	733.83
373.15 K, 10365 kPa, m1 = 0.2943	741.1
373.15 K, 10738 kPa, m1 = 0.1551	734.38
373.15 K, 10738 kPa, m1 = 0.8904	769.86
373.15 K, 15238 kPa, m1 = 0.1551	740.28
373.15 K, 15238 kPa, m1 = 0.8904	775.11
373.15 K, 15875 kPa, m1 = 0.2943	748.15
373.15 K, 20369 kPa, m1 = 0.2943	753.53
373.15 K, 21035 kPa, m1 = 0.1551	747.38
373.15 K, 21035 kPa, m1 = 0.8904	781.49
373.15 K, 25124 kPa, m1 = 0.1551	752.05
373.15 K, 25124 kPa, m1 = 0.8904	785.73
373.15 K, 25852 kPa, m1 = 0.2943	759.66
373.15 K, 30147 kPa, m1 = 0.2943	764.13
373.15 K, 30418 kPa, m1 = 0.1551	757.68
373.15 K, 30418 kPa, m1 = 0.8904	790.91
373.15 K, 35753 kPa, m1 = 0.2943	769.52
373.15 K, 35984 kPa, m1 = 0.1551	763.11
373.15 K, 35984 kPa, m1 = 0.8904	795.98
373.15 K, 39901 kPa, m1 = 0.1551	766.61
373.15 K, 39901 kPa, m1 = 0.8904	799.31
373.15 K, 39951 kPa, m1 = 0.2943	773.22
373.27 K, 528 kPa, m1 = 3.614	865.29
373.27 K, 532 kPa, m1 = 1.803	796.7
373.27 K, 4988 kPa, m1 = 1.803	802.12
373.27 K, 5015 kPa, m1 = 3.614	869.9
373.27 K, 9996 kPa, m1 = 1.803	807.82
373.27 K, 10010 kPa, m1 = 3.614	874.76
373.27 K, 14985 kPa, m1 = 1.803	813.14
373.27 K, 14994 kPa, m1 = 3.614	879.35
373.27 K, 19990 kPa, m1 = 1.803	818.17
373.27 K, 19991 kPa, m1 = 3.614	883.74
373.27 K, 24989 kPa, m1 = 1.803	822.92
373.27 K, 24995 kPa, m1 = 3.614	887.93
373.27 K, 29999 kPa, m1 = 3.614	891.95
373.27 K, 30013 kPa, m1 = 1.803	827.46
373.27 K, 34987 kPa, m1 = 3.614	895.79
373.27 K, 35004 kPa, m1 = 1.803	831.77
373.27 K, 39994 kPa, m1 = 3.614	899.5
373.27 K, 39997 kPa, m1 = 1.803	835.89
373.28 K, 542 kPa, m1 = 0.5393	739.72
373.28 K, 4986 kPa, m1 = 0.5393	746.09
373.28 K, 9996 kPa, m1 = 0.5393	752.7
373.28 K, 14984 kPa, m1 = 0.5393	758.8
373.28 K, 20003 kPa, m1 = 0.5393	764.52
373.28 K, 24985 kPa, m1 = 0.5393	769.85
373.28 K, 29993 kPa, m1 = 0.5393	774.9
373.28 K, 35001 kPa, m1 = 0.5393	779.7
373.28 K, 39997 kPa, m1 = 0.5393	784.24
398.15 K, 1035 kPa, m1 = 0.2943	699.13
398.15 K, 1138 kPa, m1 = 0.8904	730.97
398.15 K, 1432 kPa, m1 = 0.1551	691.82
398.15 K, 5023 kPa, m1 = 0.8904	736.91
398.15 K, 5126 kPa, m1 = 0.1551	698.39
398.15 K, 5236 kPa, m1 = 0.2943	706.42
398.15 K, 10058 kPa, m1 = 0.8904	744.23
398.15 K, 10628 kPa, m1 = 0.1551	707.59
398.15 K, 10698 kPa, m1 = 0.2943	715.31
398.15 K, 15234 kPa, m1 = 0.1551	714.77
398.15 K, 15573 kPa, m1 = 0.8904	751.75
398.15 K, 15874 kPa, m1 = 0.2943	723.14
398.15 K, 20035 kPa, m1 = 0.8904	757.46
398.15 K, 20452 kPa, m1 = 0.2943	729.57
398.15 K, 21035 kPa, m1 = 0.1551	723.12
398.15 K, 25069 kPa, m1 = 0.8904	763.49
398.15 K, 25235 kPa, m1 = 0.2943	735.81
398.15 K, 26078 kPa, m1 = 0.1551	729.75
398.15 K, 30027 kPa, m1 = 0.1551	734.55
398.15 K, 30047 kPa, m1 = 0.8904	769.04
398.15 K, 30385 kPa, m1 = 0.2943	741.96
398.15 K, 35256 kPa, m1 = 0.2943	747.26
398.15 K, 35845 kPa, m1 = 0.8904	774.96
398.15 K, 35941 kPa, m1 = 0.1551	741.06
398.15 K, 39127 kPa, m1 = 0.2943	751.09
398.15 K, 39254 kPa, m1 = 0.8904	778.18
398.15 K, 39789 kPa, m1 = 0.1551	744.86
398.28 K, 900 kPa, m1 = 3.614	842.05
398.28 K, 4994 kPa, m1 = 3.614	846.92
398.28 K, 10001 kPa, m1 = 3.614	852.52
398.28 K, 14988 kPa, m1 = 3.614	857.76
398.28 K, 19997 kPa, m1 = 3.614	862.72
398.28 K, 24994 kPa, m1 = 3.614	867.42
398.28 K, 29993 kPa, m1 = 3.614	871.89
398.28 K, 34991 kPa, m1 = 3.614	876.17
398.28 K, 39987 kPa, m1 = 3.614	880.27
398.29 K, 904 kPa, m1 = 0.5393	712.1
398.29 K, 906 kPa, m1 = 1.803	771.63
398.29 K, 4994 kPa, m1 = 1.803	777.53
398.29 K, 4996 kPa, m1 = 0.5393	719.24
398.29 K, 9985 kPa, m1 = 0.5393	727.14
398.29 K, 9986 kPa, m1 = 1.803	784.19
398.29 K, 14989 kPa, m1 = 1.803	790.36
398.29 K, 15010 kPa, m1 = 0.5393	734.37
398.29 K, 19986 kPa, m1 = 1.803	796.11
398.29 K, 20018 kPa, m1 = 0.5393	740.98
398.29 K, 24995 kPa, m1 = 1.803	801.52
398.29 K, 25002 kPa, m1 = 0.5393	747.09
398.29 K, 29986 kPa, m1 = 1.803	806.59
398.29 K, 30001 kPa, m1 = 0.5393	752.82
398.29 K, 34984 kPa, m1 = 0.5393	758.22
398.29 K, 34988 kPa, m1 = 1.803	811.42
398.29 K, 39996 kPa, m1 = 0.5393	763.34
398.29 K, 40001 kPa, m1 = 1.803	816.03
